Data published in US7205299B2, “Indole derivatives having an apoptosis-inducing effect” (Zentaris GmbH, priority 2003, dated 2007).
≈ marks a conversion by molar mass, not a printed value.

What was measured:
[1] = test system: murine cell line L1210; assay: XTT proliferation assay, L1210; type: cell-based; details: Mus musculus
Text: (§1) For further characterization, substances 1, 2, 4 and 11 were investigated with regard to their effect on mulitdrug-resistance cell lines as compared with that on nonresistant wild-type cell lines.
(§2) The cell lines which were investigated are the murine cell line L1210, the acute myeloid leukemia cell line LT12 and the resistant lines L1210/mdr and LT12/mdr. The murine cell line P388 (methylcholanthrene-induced lymphoid neoplasm) and doxorubicin-resistant P388 were also included as test systems.
(§3) The test results are summarized in Table 2 below: • XTT proliferation assay, EC50 in μg/ml

[2] = test system: doxorubicin-resistant P388; assay: XTT proliferation assay, P388ADR; type: cell-based, murine; details: Mus musculus
Text: as §1, §2, §3

[3] = test system: murine cell line P388; assay: XTT proliferation assay, P388; type: cell-based; details: Mus musculus
Text: as §1, §2, §3

[4] = target: human topoisomerase II (Homo sapiens, UniProt P11388); assay: pRYG relaxation assay for testing topoisomerase II activity; type: biochemical; details: compound 1 at 100, 31.6 and 10 μM; reference compounds 316 and 100 μM
Description: In the assay, the compound 1 according to the invention was tested at three different concentrations (100, 31.6 and 10 μM). The reference compounds m-amsacrine, paclitaxel (Taxol) and vincristine were used, at concentrations of 316 and 100 μM, for comparison.
2 μL of 10× assay buffer, 0.5 μL of pRYG DNA (125 ng), 0.5 μL of human topoisomerase II (1 unit) and 16 μL of H2O are added by pipette to 1 μL of initially introduced test substance (20 times concentrated in 100% DMSO) and the reagents are mixed. The reaction assay samples are placed in a heating block which has been preheated to 37° C. and incubated at 37° C. for 30 min. The incubation is stopped after adding 4 μL of 5× Stop buffer. After that, 10 μL of the assay sample are loaded onto a 1.2% agarose gel containing 0.25 μg of ethidium bromide/mL and separated at 100 V for 2.5 h. Finally, the gel is photographed under UV excitation (see FIG. 3). The inhibition of pRYG relaxation is quantified using the GelPro® Analyzer Software (see FIG. 4).

[5] = test system: resistant line LT12/mdr; assay: XTT proliferation assay, LT12/mdr; type: cell-based; details: Rattus norvegicus, LT12mdr
Text: as §1, §2, §3

[6] = test system: resistant line L1210/mdr (L1210VCR); assay: XTT proliferation assay, L1210VCR; type: cell-based, murine; details: Mus musculus
Text: as §1, §2, §3

[7] = test system: KB/HeLa cells; assay: Cell cycle analysis (G2/M arrest); type: cell-based; details: Homo sapiens, 24 hours, 37° C., read-out: EC50 (50% of cells in G2/M)
Description: For the cell cycle analysis, KB/HeLa cells were treated with different concentrations of the test substances (0.1–1000 nM) at 37° C. for 24 hours.
The percentage of cells arrested in the G2/M phase of the cell cycle after having been treated with reference substances or selected test substances is shown in Table 4 below. The results were analyzed using special analytical software (ModFit™).

[8] = test system: acute myeloid leukemia cell line LT12; assay: XTT proliferation assay, LT12; type: cell-based; details: Rattus norvegicus
Text: as §1, §2, §3

[9] = target: human DNA topoisomerase II (Homo sapiens, UniProt P11388); assay: kDNA assay for testing topoisomerase II activity; type: biochemical; details: compound 1 at 100, 31.6 and 10 μM; reference compounds 100 μM
Description: In this assay, which was described by P. Arimondo (Anti-Cancer Drug Design 2000, 15(6), 413–421), kDNA is treated with human DNA topoisomerase II in the absence or presence of the test compounds. In the assay, compound 1 according to the invention was tested at three different concentrations (100, 31.6 and 10 μM). A positive control and the reference compounds m-amsacrine (m-amsa), paclitaxel (Taxol) and vincristine, with the concentration in each case being 100 μM, were used for comparison.
2 μL of 10× assay buffer, 1 μL of kDNA (200 ng), 0.5 μL of human topoisomerase II (1 unit) and 15.5 μL of H2O are added by pipette to 1 μL of initially introduced test substance (20 times concentrated in 100% DMSO) and the reagents are mixed.
The reaction assay samples are placed in a heating block which has been preheated to 37° C. and incubated at 37° C. for 10 min. The incubation is stopped after adding 4 μL of 5× Stop buffer and the substance is subsequently extracted with CIA. After that, 20 μL of the supernatant are loaded onto a 1% agarose gel containing 0.25 μg of ethidium bromide/mL and separated at 100 V for 1 h. Finally, the gel is photographed under UV excitation (see FIG. 1). The inhibition of the decatenation of kDNA is quantified using the GelPro® Analyzer Software (see FIG. 2).

[10] = test system: ovarian adenocarcinoma cell line SKOV-3; assay: XTT proliferation assay, SKOV-3; type: cell-based, human
Text: (§4) The antiproliferative activity of substances 1, 2, 4, 9, 11, 12, 13 and 15 was investigated in a proliferation test performed on established tumor cell lines (D. A. Scuderio et al. Cancer Res. 1988, 48, 4827–4833). The test which is used determines the cellular dehydrogenase activity and makes it possible to determine cell viability and determine cell number indirectly. The cell lines which are used are the human cervical carcinoma cell line KB/HeLa (ATCC CCL17), the ovarian adenocarcinoma cell line SKOV-3 (ATCC HTB77), the human glioblastoma cell line SF-268 (NCI 503138) and the lung carcinoma cell line NCI-H460 (NCI 503473).

[11] = target: bovine tubulin (Bos taurus, UniProt P81947+Q6B856); assay: Inhibition of tubulin polymerization; type: biochemical; details: summary of Table 3
Description: Substances 1, 4, 9, 11, 12, 13 and 15 were tested for their ability to inhibit the polymerization of bovine tubulin in an in-vitro test (D. M. Bollag et al. Cancer Res. 1995, 55, 2325–2333). This test uses-tubulin which has been purified by cycles of polymerization and depolymerization and which is caused to polymerize by adding GTP and heating it. Table 3 gives the EC50 values causing inhibition of the polymerization of tubulin containing 30% associated proteins (MPAs).

[12] = test system: lung carcinoma cell line NCI-H460; assay: XTT proliferation assay, NCI-H460; type: cell-based, human
Text: as §4

[13] = test system: human glioblastoma cell line SF-268; assay: XTT proliferation assay, SF-268; type: cell-based
Text: as §4

[14] = test system: human cervical carcinoma cell line KB/HeLa; assay: XTT proliferation assay, KB/HeLa; type: cell-based
Text: as §4

Chain of bovine tubulin (P81947 whole entry): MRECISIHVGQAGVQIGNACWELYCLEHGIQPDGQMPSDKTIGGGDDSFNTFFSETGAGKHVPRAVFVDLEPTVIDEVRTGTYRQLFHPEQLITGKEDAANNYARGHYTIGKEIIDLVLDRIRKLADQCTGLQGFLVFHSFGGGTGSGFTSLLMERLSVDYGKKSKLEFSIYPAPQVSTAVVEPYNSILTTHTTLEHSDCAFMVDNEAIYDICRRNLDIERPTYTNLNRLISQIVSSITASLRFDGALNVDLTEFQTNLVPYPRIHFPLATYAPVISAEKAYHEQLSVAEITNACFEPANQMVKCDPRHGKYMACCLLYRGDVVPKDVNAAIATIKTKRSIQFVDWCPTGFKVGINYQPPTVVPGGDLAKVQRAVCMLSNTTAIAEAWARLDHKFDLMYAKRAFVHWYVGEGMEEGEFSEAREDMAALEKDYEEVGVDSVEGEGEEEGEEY
Chain of bovine tubulin (Q6B856 whole entry): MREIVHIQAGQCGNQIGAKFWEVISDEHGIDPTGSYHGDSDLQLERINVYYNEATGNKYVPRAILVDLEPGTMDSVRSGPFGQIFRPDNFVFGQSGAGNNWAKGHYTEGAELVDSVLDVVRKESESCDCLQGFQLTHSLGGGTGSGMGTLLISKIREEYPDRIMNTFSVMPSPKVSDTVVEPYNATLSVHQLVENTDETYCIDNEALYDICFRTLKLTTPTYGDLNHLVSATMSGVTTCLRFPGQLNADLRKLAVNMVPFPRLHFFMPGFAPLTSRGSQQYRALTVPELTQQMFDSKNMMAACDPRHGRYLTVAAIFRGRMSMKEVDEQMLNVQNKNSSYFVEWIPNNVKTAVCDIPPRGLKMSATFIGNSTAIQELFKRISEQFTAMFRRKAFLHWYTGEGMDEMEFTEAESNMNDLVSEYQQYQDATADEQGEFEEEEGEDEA
Chain of human topoisomerase II (P11388 whole entry): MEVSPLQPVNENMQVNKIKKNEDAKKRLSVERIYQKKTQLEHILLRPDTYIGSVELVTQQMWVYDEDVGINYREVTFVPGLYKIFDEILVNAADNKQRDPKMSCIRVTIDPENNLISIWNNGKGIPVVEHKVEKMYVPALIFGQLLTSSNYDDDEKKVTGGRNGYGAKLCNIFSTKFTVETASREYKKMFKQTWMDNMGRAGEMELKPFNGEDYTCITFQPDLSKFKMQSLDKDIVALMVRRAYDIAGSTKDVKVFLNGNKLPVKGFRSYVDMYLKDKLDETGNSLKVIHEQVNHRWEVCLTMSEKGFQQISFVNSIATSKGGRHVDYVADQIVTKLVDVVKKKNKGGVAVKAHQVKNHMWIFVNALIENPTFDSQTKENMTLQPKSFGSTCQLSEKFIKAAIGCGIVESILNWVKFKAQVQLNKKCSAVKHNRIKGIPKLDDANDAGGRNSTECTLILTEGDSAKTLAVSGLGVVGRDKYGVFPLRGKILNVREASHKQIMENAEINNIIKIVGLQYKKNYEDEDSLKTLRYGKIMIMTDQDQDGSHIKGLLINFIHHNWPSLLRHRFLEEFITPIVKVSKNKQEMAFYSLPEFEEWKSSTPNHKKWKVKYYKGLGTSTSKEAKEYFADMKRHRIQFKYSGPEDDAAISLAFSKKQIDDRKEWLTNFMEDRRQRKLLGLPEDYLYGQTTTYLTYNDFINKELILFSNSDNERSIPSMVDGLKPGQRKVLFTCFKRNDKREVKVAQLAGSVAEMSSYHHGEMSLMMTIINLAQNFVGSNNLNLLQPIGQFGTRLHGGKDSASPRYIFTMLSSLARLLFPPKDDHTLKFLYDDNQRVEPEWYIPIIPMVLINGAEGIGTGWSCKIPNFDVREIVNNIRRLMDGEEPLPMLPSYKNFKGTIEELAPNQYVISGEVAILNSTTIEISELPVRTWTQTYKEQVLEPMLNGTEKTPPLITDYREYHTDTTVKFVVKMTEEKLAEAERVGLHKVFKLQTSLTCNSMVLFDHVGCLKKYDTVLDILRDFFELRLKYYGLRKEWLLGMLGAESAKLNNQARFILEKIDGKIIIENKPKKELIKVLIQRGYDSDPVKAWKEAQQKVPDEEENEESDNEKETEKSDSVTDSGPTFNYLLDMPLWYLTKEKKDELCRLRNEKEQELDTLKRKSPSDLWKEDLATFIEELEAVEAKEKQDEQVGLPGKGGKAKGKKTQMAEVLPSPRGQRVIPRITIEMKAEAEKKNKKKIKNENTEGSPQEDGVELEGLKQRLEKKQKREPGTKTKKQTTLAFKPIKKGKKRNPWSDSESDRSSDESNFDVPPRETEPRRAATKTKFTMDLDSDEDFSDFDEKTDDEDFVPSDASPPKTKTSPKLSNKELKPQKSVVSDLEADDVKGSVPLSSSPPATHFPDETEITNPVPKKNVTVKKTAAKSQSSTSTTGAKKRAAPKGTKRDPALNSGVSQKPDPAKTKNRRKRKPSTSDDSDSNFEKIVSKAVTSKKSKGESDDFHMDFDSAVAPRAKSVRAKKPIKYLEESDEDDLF
Chain of human DNA topoisomerase II (P11388 whole entry): as above

CC(=O)O[C@H]1C(=O)[C@@]2(C)[C@H]([C@H](OC(=O)c3ccccc3)[C@]3(O)C[C@H](OC(=O)[C@H](O)[C@@H](NC(=O)c4ccccc4)c4ccccc4)C(C)=C1C3(C)C)[C@]1(OC(C)=O)CO[C@@H]1C[C@@H]2O [Paclitaxel, paclitaxel]
EC50 [1]: 0.048 µg/mL (≈ 0.0562 µM) | EC50 [2]: > 3.16 µg/mL | EC50 [3]: 0.035 µg/mL (≈ 0.041 µM) | inhibition of topoisomerase II, pRYG DNA relaxation [4]: neither paclitaxel nor vincristine was observed to have any inhibitory effects | EC50 [5]: 0.34 µg/mL (≈ 0.398 µM) | EC50 [6]: > 3.16 µg/mL | EC50 [7]: 26.9 nM | EC50 [8]: 0.005 µg/mL (≈ 0.00586 µM) | inhibition of topoisomerase II, kDNA decatenation [9]: neither paclitaxel nor vincristine was observed to have any inhibitory effects

O=C(Nc1ccc2ncccc2c1)C(=S)c1cn(Cc2ccc(Cl)cc2)c2ccccc12 [Compound 11, 2-[1-(4-chlorobenzyl)-1H-indol-3-yl]-N-quinolin-6-yl-2-thioxoacetamide]
EC50 ([10]; Homo sapiens, SK-OV-3, read-out: XTT proliferation assay, EC50, SKOV3): 0.029 µg/mL (≈ 0.0636 µM) | EC50 [1]: 0.052 µg/mL (≈ 0.114 µM) | EC50 [2]: 0.051 µg/mL (≈ 0.112 µM) | inhibitory effect on tubulin polymerization (in words) [11]: very potent inhibitory effect | EC50 [3]: 0.018 µg/mL (≈ 0.0395 µM) | EC50 ([12]; Homo sapiens): 0.057 µg/mL (≈ 0.125 µM) | EC50 ([13]; Homo sapiens): 0.036 µg/mL (≈ 0.079 µM) | EC50 ([14]; Homo sapiens, HeLa): 0.036 µg/mL (≈ 0.079 µM) | EC50 [5]: 0.054 µg/mL (≈ 0.118 µM) | EC50 [6]: 0.067 µg/mL (≈ 0.147 µM) | EC50 [7]: 41.8 nM | EC50 [8]: 0.023 µg/mL (≈ 0.0504 µM)

O=C(Nc1cccc2cnccc12)C(=O)c1cn(Cc2ccc(Cl)cc2)c2ccccc12 [Compound 13, 2-[l-(4-chlorobenzyl)-1H-indol-3-yl]-N-isoquinolin-5-yl-2-oxoacetamide]
XTT proliferation assay, EC50, SKOV3 ([10]; SKOV3): >3.16 µg/mL | inhibitory effect on tubulin polymerization (in words) [11]: do not exert any effect | XTT proliferation assay, EC50, NCI-H460 [12]: >3.16 µg/mL | XTT proliferation assay, EC50, SF-268 [13]: >3.16 µg/mL | XTT proliferation assay, EC50, KB/HeLa ([14]; KB/HeLa): >3.16 µg/mL
